Calls of active or inactive are those of the source. No cut-off for these calls is given here. Non-standard residues stand in square brackets, D forms with d. Residues, ends and D or L forms follow the SMILES beside them. Tle = CC(C)(C)[C@H](N)C(=O)O; Aib = CC(C)(N)C(=O)O
Test system: PC-12
Experiment: Protection against amyloid beta-induced neurotoxicity in rat PC-12 cells assessed as cell viability at 2 uM by MTT assay (reference value: 63.6 %)
Assay type: functional
Settings: read-out: Activity

| Compound | viability at 2 µM [%] |
| --- | --- |
| CC(C)[C@H](NC(=O)[C@@H](NC(=O)C(C)(C)NC(=O)[C@H](C)N)C(C)C)C(N)=O (H-A[Aib]VV-NH2) | 52.1 |
| CC[C@H](C)[C@H](NC(=O)[C@@H](NC(=O)[C@@H](N)C(C)C)C(C)(C)C)C(=O)N[C@@H](C)C(N)=O (H-V[Tle]IA-NH2) | 77.7 |
| CC[C@H](C)[C@H](NC(=O)[C@@H](NC(=O)[C@@H](N)C(C)C)C(C)C)C(=O)N[C@@H](C)C(N)=O | 60.7 |
| CC[C@H](C)[C@H](NC(=O)[C@H](N)Cc1ccccc1)C(=O)N[C@H](C(=O)N[C@H](C(N)=O)C(C)C)C(C)C | 68.4 |
| CC[C@H](C)[C@H](NC(=O)[C@@H](NC(=O)[C@@H](N)C(C)C)C(C)C)C(=O)N[C@@H](Cc1ccccc1)C(N)=O (H-VVIF-NH2) | 85.6 |
| CC[C@H](C)[C@H](NC(=O)[C@H](C)N)C(=O)N[C@H](C(=O)N[C@H](C(N)=O)C(C)C)C(C)C | 55.2 |
| CC[C@H](C)[C@H](NC(=O)[C@@H](NC(=O)C1Cc2ccccc2CN1)C(C)C)C(=O)N[C@@H](C)C(N)=O (stereo partly specified) | 68.8 |
| CC[C@@H](C)[C@@H](NC(=O)[C@@H](C)N)C(=O)N[C@@H](C(=O)N[C@@H](C(N)=O)C(C)C)C(C)C | 68.7 |

Test system: PC-12
Experiment: Protection against amyloid beta-induced neurotoxicity in rat PC-12 cells assessed as cell viability at 10 uM by MTT assay (reference value: 63.6 %)
Assay type: functional
Settings: read-out: Activity

| Compound | viability at 10 µM [%] |
| --- | --- |
| CC(C)[C@H](NC(=O)[C@@H](NC(=O)C(C)(C)NC(=O)[C@H](C)N)C(C)C)C(N)=O (H-A[Aib]VV-NH2) | 59.6 |
| CC[C@H](C)[C@H](NC(=O)[C@@H](NC(=O)[C@@H](N)C(C)C)C(C)(C)C)C(=O)N[C@@H](C)C(N)=O (H-V[Tle]IA-NH2) | 74.9 |
| CC[C@H](C)[C@H](NC(=O)[C@@H](NC(=O)[C@@H](N)C(C)C)C(C)C)C(=O)N[C@@H](C)C(N)=O | 63.4 |
| CC[C@H](C)[C@H](NC(=O)[C@H](N)Cc1ccccc1)C(=O)N[C@H](C(=O)N[C@H](C(N)=O)C(C)C)C(C)C | 67 |
| CC[C@H](C)[C@H](NC(=O)[C@@H](NC(=O)[C@@H](N)C(C)C)C(C)C)C(=O)N[C@@H](Cc1ccccc1)C(N)=O (H-VVIF-NH2) | 66.9 |
| CC[C@H](C)[C@H](NC(=O)[C@H](C)N)C(=O)N[C@H](C(=O)N[C@H](C(N)=O)C(C)C)C(C)C | 58.3 |
| CC[C@H](C)[C@H](NC(=O)[C@@H](NC(=O)C1Cc2ccccc2CN1)C(C)C)C(=O)N[C@@H](C)C(N)=O (stereo partly specified) | 61.8 |
| CC[C@@H](C)[C@@H](NC(=O)[C@@H](C)N)C(=O)N[C@@H](C(=O)N[C@@H](C(N)=O)C(C)C)C(C)C | 74.6 |

Molecular target: Amyloid-beta precursor protein (Homo sapiens) (UniProt P05067)
Experiment: Inhibition of amyloid beta (1 to 42) (unknown origin) self aggregation by ThT fluorescence assay relative to control
Settings: concentration not given here

Sequence of Amyloid-beta precursor protein (Homo sapiens) (P05067 whole entry): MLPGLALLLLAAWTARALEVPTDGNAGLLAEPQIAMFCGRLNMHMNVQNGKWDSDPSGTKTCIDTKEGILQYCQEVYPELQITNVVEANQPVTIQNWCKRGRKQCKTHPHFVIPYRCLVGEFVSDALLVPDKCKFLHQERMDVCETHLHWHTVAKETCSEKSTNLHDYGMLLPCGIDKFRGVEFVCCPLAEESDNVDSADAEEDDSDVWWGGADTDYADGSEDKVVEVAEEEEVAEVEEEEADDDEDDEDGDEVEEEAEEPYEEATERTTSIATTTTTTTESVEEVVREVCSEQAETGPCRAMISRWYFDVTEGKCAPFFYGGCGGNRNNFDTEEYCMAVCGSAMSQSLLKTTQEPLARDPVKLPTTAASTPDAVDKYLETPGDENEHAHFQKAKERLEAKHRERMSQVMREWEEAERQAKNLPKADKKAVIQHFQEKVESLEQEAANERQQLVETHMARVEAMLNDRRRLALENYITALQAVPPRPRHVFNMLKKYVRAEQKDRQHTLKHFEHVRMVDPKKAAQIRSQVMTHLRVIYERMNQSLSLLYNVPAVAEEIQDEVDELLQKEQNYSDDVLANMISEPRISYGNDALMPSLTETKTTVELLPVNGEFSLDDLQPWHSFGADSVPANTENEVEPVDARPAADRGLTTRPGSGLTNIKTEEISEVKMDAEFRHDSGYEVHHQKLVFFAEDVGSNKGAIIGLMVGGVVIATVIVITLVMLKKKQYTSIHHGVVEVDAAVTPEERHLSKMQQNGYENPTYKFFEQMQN

| inhibition [%] | Compound |
| --- | --- |
| > 50 | CC[C@H](C)[C@H](NC(=O)[C@@H](NC(=O)[C@@H](N)C(C)C)C(C)C)C(=O)N[C@@H](Cc1ccccc1)C(N)=O (H-VVIF-NH2) |

Test system: not listed separately
Experiment: Inhibition of amyloid beta-induced neurotoxicity in rat PC-12 cells at 4 uM by MTT assay relative to control
Assay type: functional
Settings: not given

| Compound | inhibition at 4 µM [%] |
| --- | --- |
| CC(C)[C@H](NC(=O)[C@@H](NC(=O)C(C)(C)NC(=O)[C@H](C)N)C(C)C)C(N)=O (H-A[Aib]VV-NH2) | 32 |
| CC[C@H](C)[C@H](NC(=O)[C@@H](NC(=O)[C@@H](N)C(C)C)C(C)(C)C)C(=O)N[C@@H](C)C(N)=O (H-V[Tle]IA-NH2) | 42 |
| CC[C@H](C)[C@H](NC(=O)[C@@H](NC(=O)[C@@H](N)C(C)C)C(C)C)C(=O)N[C@@H](C)C(N)=O | 0 |
| CC[C@H](C)[C@H](NC(=O)[C@H](N)Cc1ccccc1)C(=O)N[C@H](C(=O)N[C@H](C(N)=O)C(C)C)C(C)C | 0 |
| CC[C@H](C)[C@H](NC(=O)[C@@H](NC(=O)[C@@H](N)C(C)C)C(C)C)C(=O)N[C@@H](Cc1ccccc1)C(N)=O (H-VVIF-NH2) | 55 |
| CC[C@H](C)[C@H](NC(=O)[C@H](C)N)C(=O)N[C@H](C(=O)N[C@H](C(N)=O)C(C)C)C(C)C | 15 |
| CC[C@H](C)[C@H](NC(=O)[C@@H](NC(=O)C1Cc2ccccc2CN1)C(C)C)C(=O)N[C@@H](C)C(N)=O (stereo partly specified) | 0 |
| CC[C@@H](C)[C@@H](NC(=O)[C@@H](C)N)C(=O)N[C@@H](C(=O)N[C@@H](C(N)=O)C(C)C)C(C)C | 0 |

Test system: not listed separately
Experiment: Inhibition of amyloid beta-induced neurotoxicity in rat PC-12 cells at 10 uM by MTT assay relative to control
Assay type: functional
Settings: not given

| Compound | inhibition at 10 µM [%] |
| --- | --- |
| CC(C)[C@H](NC(=O)[C@@H](NC(=O)C(C)(C)NC(=O)[C@H](C)N)C(C)C)C(N)=O (H-A[Aib]VV-NH2) | 0 |
| CC[C@H](C)[C@H](NC(=O)[C@@H](NC(=O)[C@@H](N)C(C)C)C(C)(C)C)C(=O)N[C@@H](C)C(N)=O (H-V[Tle]IA-NH2) | 31 |
| CC[C@H](C)[C@H](NC(=O)[C@@H](NC(=O)[C@@H](N)C(C)C)C(C)C)C(=O)N[C@@H](C)C(N)=O | 0 |
| CC[C@H](C)[C@H](NC(=O)[C@H](N)Cc1ccccc1)C(=O)N[C@H](C(=O)N[C@H](C(N)=O)C(C)C)C(C)C | 9.3 |
| CC[C@H](C)[C@H](NC(=O)[C@@H](NC(=O)[C@@H](N)C(C)C)C(C)C)C(=O)N[C@@H](Cc1ccccc1)C(N)=O (H-VVIF-NH2) | 9 |
| CC[C@H](C)[C@H](NC(=O)[C@H](C)N)C(=O)N[C@H](C(=O)N[C@H](C(N)=O)C(C)C)C(C)C | 0 |
| CC[C@H](C)[C@H](NC(=O)[C@@H](NC(=O)C1Cc2ccccc2CN1)C(C)C)C(=O)N[C@@H](C)C(N)=O (stereo partly specified) | 0 |
| CC[C@@H](C)[C@@H](NC(=O)[C@@H](C)N)C(=O)N[C@@H](C(=O)N[C@@H](C(N)=O)C(C)C)C(C)C | 30 |

Molecular target: Amyloid-beta precursor protein (Homo sapiens) (UniProt P05067)
Experiment: Inhibition of amyloid beta (1 to 42) (unknown origin) self aggregation at 2 to 10 uM by ThT fluorescence assay
Settings: dose 2-10 µM

| inhibition | Compound |
| --- | --- |
| Active | CC[C@H](C)[C@H](NC(=O)[C@@H](NC(=O)[C@@H](N)C(C)C)C(C)(C)C)C(=O)N[C@@H](C)C(N)=O (H-V[Tle]IA-NH2) |
| Active | CC[C@H](C)[C@H](NC(=O)[C@@H](NC(=O)C1Cc2ccccc2CN1)C(C)C)C(=O)N[C@@H](C)C(N)=O (stereo partly specified) |

Test system: not listed separately
Experiment: Inhibition of amyloid beta-induced neurotoxicity in rat PC-12 cells at 2 uM by MTT assay relative to control
Assay type: functional
Settings: not given

| Compound | inhibition at 2 µM [%] |
| --- | --- |
| CC(C)[C@H](NC(=O)[C@@H](NC(=O)C(C)(C)NC(=O)[C@H](C)N)C(C)C)C(N)=O (H-A[Aib]VV-NH2) | 0 |
| CC[C@H](C)[C@H](NC(=O)[C@@H](NC(=O)[C@@H](N)C(C)C)C(C)(C)C)C(=O)N[C@@H](C)C(N)=O (H-V[Tle]IA-NH2) | 39 |
| CC[C@H](C)[C@H](NC(=O)[C@@H](NC(=O)[C@@H](N)C(C)C)C(C)C)C(=O)N[C@@H](C)C(N)=O | 0 |
| CC[C@H](C)[C@H](NC(=O)[C@H](N)Cc1ccccc1)C(=O)N[C@H](C(=O)N[C@H](C(N)=O)C(C)C)C(C)C | 13 |
| CC[C@H](C)[C@H](NC(=O)[C@@H](NC(=O)[C@@H](N)C(C)C)C(C)C)C(=O)N[C@@H](Cc1ccccc1)C(N)=O (H-VVIF-NH2) | 60 |
| CC[C@H](C)[C@H](NC(=O)[C@H](C)N)C(=O)N[C@H](C(=O)N[C@H](C(N)=O)C(C)C)C(C)C | 0 |
| CC[C@H](C)[C@H](NC(=O)[C@@H](NC(=O)C1Cc2ccccc2CN1)C(C)C)C(=O)N[C@@H](C)C(N)=O (stereo partly specified) | 14 |
| CC[C@@H](C)[C@@H](NC(=O)[C@@H](C)N)C(=O)N[C@@H](C(=O)N[C@@H](C(N)=O)C(C)C)C(C)C | 14 |

Test system: PC-12
Experiment: Protection against amyloid beta-induced neurotoxicity in rat PC-12 cells assessed as cell viability at 4 uM by MTT assay (reference value: 63.6 %)
Assay type: functional
Settings: read-out: Activity

| Compound | viability at 4 µM [%] |
| --- | --- |
| CC(C)[C@H](NC(=O)[C@@H](NC(=O)C(C)(C)NC(=O)[C@H](C)N)C(C)C)C(N)=O (H-A[Aib]VV-NH2) | 75.3 |
| CC[C@H](C)[C@H](NC(=O)[C@@H](NC(=O)[C@@H](N)C(C)C)C(C)(C)C)C(=O)N[C@@H](C)C(N)=O (H-V[Tle]IA-NH2) | 78.8 |
| CC[C@H](C)[C@H](NC(=O)[C@@H](NC(=O)[C@@H](N)C(C)C)C(C)C)C(=O)N[C@@H](C)C(N)=O | 59.4 |
| CC[C@H](C)[C@H](NC(=O)[C@H](N)Cc1ccccc1)C(=O)N[C@H](C(=O)N[C@H](C(N)=O)C(C)C)C(C)C | 54.7 |
| CC[C@H](C)[C@H](NC(=O)[C@@H](NC(=O)[C@@H](N)C(C)C)C(C)C)C(=O)N[C@@H](Cc1ccccc1)C(N)=O (H-VVIF-NH2) | 83.6 |
| CC[C@H](C)[C@H](NC(=O)[C@H](C)N)C(=O)N[C@H](C(=O)N[C@H](C(N)=O)C(C)C)C(C)C | 69 |
| CC[C@H](C)[C@H](NC(=O)[C@@H](NC(=O)C1Cc2ccccc2CN1)C(C)C)C(=O)N[C@@H](C)C(N)=O (stereo partly specified) | 62.4 |
| CC[C@@H](C)[C@@H](NC(=O)[C@@H](C)N)C(=O)N[C@@H](C(=O)N[C@@H](C(N)=O)C(C)C)C(C)C | 63.3 |

Source: ChEMBL document CHEMBL6083190, “Synthesis and mechanistic study of Aβ42 C-terminus domain derived tetrapeptides that inhibit Alzheimer's Aβ-aggregation-induced neurotoxicity” (Bioorg Med Chem Lett, 2024)
